Measured values taken from patent US12502390B2, “Compositions comprising tigolaner for controlling parasites” ([…], priority 2019, dated 2025).
Like-named read-outs stand apart in the source and are kept apart here.

Experiments:
Musca domestica = details: 100 ppm; cited from earlier work
Ctenocephalides felis [1] = details: rats, application rate 10 mg/kg, cited from earlier work
Lucilia cuprina = details: 100 ppm; cited from earlier work
Ctenocephalides felis [2] = details: Ctenocephalides felis contact test; 1 μg/cm^2; cited from earlier work
Rhipicephalus sanguineus = Rhipicephalus sanguineus contact test; 1 μg/cm^2; cited from earlier work
Boophilus microplus [3] = details: Boophilus microplus injection test; 20 μg/tick; cited from earlier work
Amblyomma hebraeum [4] = details: 100 ppm; cited from earlier work
Ctenocephalides felis [5] = details: Ctenocephalides felis oral test; 100 ppm; cited from earlier work
[6] = Solubility of tigolaner in solketal (1,2-isopropylideneglycerol); assay type: physicochemical
Excerpt: In another embodiment of the composition the solvent component comprises only 1,2-isopropylideneglycerol.

Amblyomma hebraeum [7] = details: Amblyomma hebraeum contact test; 1 μg/cm^2; cited from earlier work
Ixodes ricinus = Ixodes ricinus contact test; 1 μg/cm^2; cited from earlier work
Boophilus microplus [8] = details: Boophilus microplus dip test; 100 ppm; cited from earlier work
Dermacentor variabilis = details: rats; day 2; application rate 10 mg/kg; cited from earlier work

For `Cn1nc(C(F)(F)C(F)(F)F)c(C(F)(F)F)c1-n1cc(-c2ccc(Cl)c(C(=O)NC3(C#N)CC3)c2)cn1` [Tigolaner], the efficacy (Musca domestica) is given as 100%, the efficacy against fleas (Ctenocephalides felis [1]; day 2) is given as over 95% and the efficacy against fleas (Ctenocephalides felis [1]; day 9) is given as over 90%. For the same compound, the efficacy (Lucilia cuprina) was 100%, the efficacy (Ctenocephalides felis [2]) was 100% and the efficacy (Rhipicephalus sanguineus) was 100%. For the same compound, the efficacy (Boophilus microplus [3]) was 100%, the efficacy (Amblyomma hebraeum [4]) was 100% and the efficacy (Ctenocephalides felis [5]) was 100%. The “solubility of tigolaner in solketal in the presence of praziquantel” value ([6]; in the presence of praziquantel, in particular of 7.5 to 8.5% w/w of praziquantel) was “more than 10.5 % w/w”, the “effect of lactic acid on solubility of tigolaner in 1,2-isopropylideneglycerol” value ([6]; presence of lactic acid) was “slightly lowers the solubility” and the “solubility of tigolaner in solketal alone” value ([6]; solketal alone) was 9.5-9.9 % w/w. For the same compound, the efficacy (Amblyomma hebraeum [7]) was 100%, the efficacy (Ixodes ricinus) was 100% and the efficacy (Boophilus microplus [8]) was 100%. The “efficacy against tick nymphs” value (Dermacentor variabilis) was over 90%.
